# Patent US9902696B2, “1,4-substituted piperidine derivatives” (Cephalon, Inc., priority 2015, dated 2018)
# Counter-ions that a name gives are not always drawn.
# Target: T1, recombinant human baculovirus-expressed GST-tagged FASN (Homo sapiens, UniProt P49327)
# T1 construct: GST
# Assay: FASN enzyme activity assay, fluorescence-based detection of CoA with CPM
# Assay type: biochemical
# Conditions: 5 nM FASN, 150 μM NADPH, 10 μM acetyl-CoA, 25 μM malonyl-CoA, 90 minutes incubation; read-out: IC50 data for Additional Compounds of Formulae I-V(a): Activity
# Method in brief: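 Human GST-tagged FASN, baculovirus-expressed (5 nM), in 50 mM HEPES pH 7.5 with 150 μM NADPH, 10 μM acetyl-CoA, 25 μM malonyl-CoA, 0.5% DMSO; malonyl-CoA-started, 90 min. Released CoA detected with CPM (50 μM dilution), 30 min, fluorescence ex 390/em 530. IC50 from variable-slope sigmoidal fit of % inhibition versus log concentration.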
# T1 sequence (P49327 whole entry): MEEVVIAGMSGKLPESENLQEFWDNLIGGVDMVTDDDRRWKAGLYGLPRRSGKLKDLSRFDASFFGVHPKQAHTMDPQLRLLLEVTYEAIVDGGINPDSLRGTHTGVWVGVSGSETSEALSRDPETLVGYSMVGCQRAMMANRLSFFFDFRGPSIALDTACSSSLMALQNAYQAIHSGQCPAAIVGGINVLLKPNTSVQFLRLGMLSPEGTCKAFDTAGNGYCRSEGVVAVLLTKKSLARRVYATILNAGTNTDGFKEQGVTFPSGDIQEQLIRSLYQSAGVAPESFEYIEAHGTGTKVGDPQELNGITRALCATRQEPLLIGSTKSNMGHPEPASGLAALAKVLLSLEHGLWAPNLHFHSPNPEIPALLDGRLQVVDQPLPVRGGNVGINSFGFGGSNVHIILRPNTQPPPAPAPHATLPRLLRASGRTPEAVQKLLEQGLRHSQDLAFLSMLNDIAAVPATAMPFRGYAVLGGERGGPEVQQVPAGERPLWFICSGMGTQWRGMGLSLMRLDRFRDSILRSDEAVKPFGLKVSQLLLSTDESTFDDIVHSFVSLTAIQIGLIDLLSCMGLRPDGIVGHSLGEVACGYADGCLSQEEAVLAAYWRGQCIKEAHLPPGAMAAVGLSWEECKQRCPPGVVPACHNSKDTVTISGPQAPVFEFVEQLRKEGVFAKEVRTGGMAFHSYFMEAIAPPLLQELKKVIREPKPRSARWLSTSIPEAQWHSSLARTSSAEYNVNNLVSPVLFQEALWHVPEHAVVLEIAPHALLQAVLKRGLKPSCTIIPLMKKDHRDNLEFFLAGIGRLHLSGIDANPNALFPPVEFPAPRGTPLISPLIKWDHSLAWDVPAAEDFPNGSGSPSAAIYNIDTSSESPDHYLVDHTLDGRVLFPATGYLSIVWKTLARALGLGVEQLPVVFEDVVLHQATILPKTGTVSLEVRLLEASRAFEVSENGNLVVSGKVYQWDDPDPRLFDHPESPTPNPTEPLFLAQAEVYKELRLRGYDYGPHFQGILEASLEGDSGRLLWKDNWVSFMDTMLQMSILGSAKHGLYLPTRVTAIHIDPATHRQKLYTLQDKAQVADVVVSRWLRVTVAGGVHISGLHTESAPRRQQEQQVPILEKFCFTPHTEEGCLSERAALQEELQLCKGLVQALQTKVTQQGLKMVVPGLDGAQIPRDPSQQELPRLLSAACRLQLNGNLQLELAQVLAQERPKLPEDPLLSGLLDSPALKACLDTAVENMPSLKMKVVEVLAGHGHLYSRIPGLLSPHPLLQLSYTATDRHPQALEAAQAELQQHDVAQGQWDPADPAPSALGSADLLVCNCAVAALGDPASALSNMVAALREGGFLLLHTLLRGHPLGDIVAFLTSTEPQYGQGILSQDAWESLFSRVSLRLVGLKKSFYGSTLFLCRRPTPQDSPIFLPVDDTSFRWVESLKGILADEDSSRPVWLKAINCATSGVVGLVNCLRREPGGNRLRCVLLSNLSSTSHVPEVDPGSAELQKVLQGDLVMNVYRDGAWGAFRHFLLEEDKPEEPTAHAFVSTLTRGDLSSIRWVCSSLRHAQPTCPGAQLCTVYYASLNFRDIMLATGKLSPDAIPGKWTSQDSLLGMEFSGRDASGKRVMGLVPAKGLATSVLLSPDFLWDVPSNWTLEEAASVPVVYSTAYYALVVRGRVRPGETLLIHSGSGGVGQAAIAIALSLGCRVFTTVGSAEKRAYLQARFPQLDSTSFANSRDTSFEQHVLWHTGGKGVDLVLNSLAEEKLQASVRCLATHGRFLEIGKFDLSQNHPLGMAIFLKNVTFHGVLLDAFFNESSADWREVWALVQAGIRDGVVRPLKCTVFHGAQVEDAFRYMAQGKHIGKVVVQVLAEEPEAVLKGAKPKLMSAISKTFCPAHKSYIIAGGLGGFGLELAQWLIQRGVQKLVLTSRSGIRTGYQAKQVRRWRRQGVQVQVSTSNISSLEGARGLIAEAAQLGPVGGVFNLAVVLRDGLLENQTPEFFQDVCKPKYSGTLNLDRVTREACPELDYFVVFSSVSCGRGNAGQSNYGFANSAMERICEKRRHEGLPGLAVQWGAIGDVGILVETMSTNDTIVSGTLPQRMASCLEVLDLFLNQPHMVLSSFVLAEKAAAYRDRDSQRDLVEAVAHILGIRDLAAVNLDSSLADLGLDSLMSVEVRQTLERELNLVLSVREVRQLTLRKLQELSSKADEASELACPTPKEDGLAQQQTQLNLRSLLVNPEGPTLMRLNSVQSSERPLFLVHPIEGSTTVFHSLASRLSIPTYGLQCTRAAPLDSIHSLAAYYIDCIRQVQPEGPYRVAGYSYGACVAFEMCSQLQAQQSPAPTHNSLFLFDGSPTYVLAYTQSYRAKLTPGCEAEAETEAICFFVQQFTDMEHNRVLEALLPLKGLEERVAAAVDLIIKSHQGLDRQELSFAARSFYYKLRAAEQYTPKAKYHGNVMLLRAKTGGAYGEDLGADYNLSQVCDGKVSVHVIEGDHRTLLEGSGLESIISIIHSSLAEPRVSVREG
row,IC50 [nM],SMILES
1,1000 to 10000,"CCN1CCN(C(=O)N2CCC(Oc3ccc(-c4ccc5cccnc5c4C)cc3)CC2)CC1 [Example 535, (4-Ethyl lpiperazin-1-yl)-[4-[4-(8-methyl-7-quinolyl)phenoxy]-1-piperidyl]methanone tosylate]"
2,1 to 99,"Cc1c(-c2ccc(OC3CCN(C(=O)[C@H](C)N)CC3)cc2)ccc2cccnc12 [Example 612, (2S)-2-Amino-1-[4-[4-(8-methyl-7-quinolyl)phenoxy]-1-piperidyl]propan-1-one 2HCl]"
3,1000 to 10000,"Cc1c(-c2ccc(OC3CCN(C(=O)NCC(C)C)CC3)cc2)ccc2nccn12 [Example 593, N-Isobutyl-4-[4-(5-methylimidazo[1,2-a]pyridin-6-yl)phenoxy]piperidine-1-carboxamide]"
4,1 to 99,"Cc1c(-c2ccc(OC3CCN(C(=O)NOC(C)C)CC3)cc2)ccc2ccnn12 [Example 537, N-Isopropoxy-4-[4-(7-methylpyrazolo[1,5-a]pyridin-6-yl)phenoxy]piperidine-1-carboxamide]"
5,1000 to 10000,"Cc1c(-c2ccc(OC3CCN(C(=O)Nc4cnn(C)c4)CC3)cc2)ccc2nccn12 [Example 604, 4-[4-(5-Methylimidazo[1,2-a]pyridin-6-yl)phenoxy]-N-(1-methylpyrazol-4-yl)piperidine-1-carboxamide]"
6,1000 to 10000,"Cc1c(-c2ccc(OC3CCN(C(=O)[C@H]4CCCN4)CC3)cc2)ccc2cccnc12 [Example 620, [4-[4-(8-Methyl-7-quinolyl)phenoxy]-1-piperidyl]-[(2R)-pyrrolidin-2-yl]methanone]"
7,100 to 999,"Cc1c(-c2ccc(OC3CCN(C(=O)NOC(C)C)CC3)cc2)ccn2ccnc12 [Example 630, N-Isopropoxy-4-[4-(8-methylimidazo[1,2-a]pyridin-7-yl)phenoxy]piperidine-1-carboxamide, HCl]"
8,1000 to 10000,"Cc1c(-c2ccc(OC3CCN(C(=O)NC4CCC4)CC3)cc2)ccc2cccnc12 [Example 552, N-Cyclobutyl-4-[4-(8-methyl-7-quinolyl)phenoxy]piperidine-1-carboxamide HCl]"

# Same assay, conditions: 5 nM FASN, 150 μM NADPH, 10 μM acetyl-CoA, 25 μM malonyl-CoA, 90 minutes incubation; read-out: IC50 data for Compounds of Formulae I-V/V(a): Activity
row,IC50 [nM],SMILES
1,1000 to 10000,"O=C(C1CC1)N1CCC(Oc2ccc(-c3ccc(Nc4ccccc4)nc3)cc2)CC1 [Example 393, Cyclopropyl-{4-[4-(6-phenylaminopyridin-3-yl)-phenoxy]-piperidin-1-yl}-methanone, TFA salt]"
2,1000 to 10000,"O=C1OCCN1C(=O)N1CCC(Oc2ccc(-c3cnc4ccccc4c3)cc2)CC1 [Example 241, 3-[4-(4-Quinolin-3-yl-phenoxy)-piperidine-1-carbonyl]-oxazolidin-2-one]"
3,1 to 99,"CC(C)Oc1cc2cc(-c3ccc(OC4CCN(C(=O)[C@H]5CCCO5)CC4)cc3)ccc2cn1 [Example 451, {4-[4-(3-Isopropoxyisoquinolin-6-yl)-phenoxy]-piperidin-1-yl}-(R)-tetrahydrofuran-2-yl-methanone]"
4,1 to 99,"Cc1cccc2cc(-c3ccc(OC4CCN(C(=O)C5CC5)CC4)cc3)cnc12 [Example 487, Cyclopropyl-{4-[4-(8-methylquinolin-3-yl)-phenoxy]-piperidin-1-yl}-methanone]"
5,1 to 99,"CCC(=O)N1CCC(Oc2ccc(-c3cnc4ccccc4c3Cl)cc2)CC1 [Example 47, 1-{4-[4-(4-Chloroquinolin-3-yl)-phenoxy]-piperidin-1-yl}-propan-1-one]"
6,100 to 999,"CCC(=O)N1CCC(Oc2ccc(-c3ccc4cnc(N)cc4c3)cc2)CC1 [Example 422, 1-{4-[4-(3-Aminoisoquinolin-6-yl)-phenoxy]-piperidin-1-yl}-propan-1-one]"
7,1000 to 10000,"CCC(=O)N1CCC(Oc2ccc(-c3ccnc(-c4ccccc4)c3)cc2)CC1 [Example 402, 1-{4-[4-(2-Phenylpyridin-4-yl)-phenoxy]-piperidin-1-yl}-propan-1-one, TFA]"
8,1 to 99,"COc1c(-c2ccc(OC3CCN(C(=O)C4CC4)CC3)c(F)c2)ccc2cccnc12 [Example 220, Cyclopropyl-{4-[2-fluoro-4-(8-methoxyquinolin-7-yl)-phenoxy]-piperidin-1-yl}-methanone]"
9,1000 to 10000,"O=C(C1CC1)N1CCC(Oc2ccc(-c3cnc4ccoc4c3)cc2)CC1 [Example 52, Cyclopropyl-[4-(4-furo[3,2-b]pyridin-6-yl-phenoxy)-piperidin-1-yl]-methanone]"
10,1000 to 10000,"CCC(=O)N1CCC(Oc2ccc(-c3cc(O)c4ccnn4c3)cc2)CC1 [Example 426, 1-{4-[4-(4-Hydroxypyrazolo[1,5-a]pyridin-6-yl)-phenoxy]-piperidin-1-yl}-propan-1-one]"
11,1000 to 10000,"CC(C)C(=O)N1CCC(Oc2ccc(-c3cnc4ccccc4c3)cc2Cl)CC1 [Example 192, 1-[4-(2-Chloro-4-quinolin-3-yl-phenoxy)-piperidin-1-yl]-2-methyl-propan-1-one]"
12,1000 to 10000,"Cc1cc(-c2cnc3ccccc3c2)ccc1OC1CCN(C(=O)C(C)C)CC1 [Example 213, 2-Methyl-1-[4-(2-methyl-4-quinolin-3-yl-phenoxy)-piperidin-1-yl]-propan-1-one]"
13,1000 to 10000,"CCC(=O)N1CCC(Oc2ccc(-c3ccc4cccnc4c3)nc2)CC1 [Example 144, 1-[4-(6-Quinolin-7-yl-pyridin-3-yloxy)-piperidin-1-yl]-propan-1-one, 2HCl]"
14,1 to 99,"CCOc1c(-c2ccc(OC3CCN(C(=O)[C@H]4CCCO4)CC3)cc2)ccc2cccnc12 [Example 181, {4-[4-(8-Ethoxyquinolin-7-yl)-phenoxy]-piperidin-1-yl}-(R)-tetrahydro-furan-2-yl-methanone, HCl]"
15,1000 to 10000,"CC(C)C(=O)N1CCC(Oc2ccc(-c3cnc4ccccc4c3)cn2)CC1 [Example 133, 2-Methyl-1-[4-(5-quinolin-3-yl-pyridin-2-yloxy)-piperidin-1-yl]-propan-1-one, HCl]"
16,1000 to 10000,"COc1cc(OC2CCN(C(=O)C(C)C)CC2)ccc1-c1cnc2ccccc2c1 [Example 210, 1-[4-(3-Methoxy-4-quinolin-3-yl-phenoxy)-piperidin-1-yl]-2-methyl-propan-1-one]"

row,IC50 [nM],SMILES
1,1 to 99,"Cc1ccc2cc(-c3ccc(OC4CCN(C(=O)N5CCCO5)CC4)cc3)cnc2c1 [Example 80, Isoxazolidin-2-yl-{4-[4-(7-methylquinolin-3-yl)-phenoxy]-piperidin-1-yl}-methanone]"
2,1000 to 10000,"CCC(=O)N1CCC(Oc2ccc(-c3cnc4ccccc4c3N(C)C)cc2)CC1 [Example 232, 1-{4-[4-(4-Dimethylaminoquinolin-3-yl)-phenoxy]-piperidin-1-yl}-propan-1-one]"
3,1000 to 10000,"CCC(=O)N1CCC(Oc2ccc(-c3ccc4cnc(Cl)cc4c3)cc2)CC1 [Example 413, 1-{4-[4-(3-Chloroisoquinolin-6-yl)-phenoxy]-piperidin-1-yl}-propan-1-one]"
4,1000 to 10000,"CCC(=O)N1CCC(Oc2ccc(-c3ccc4cccnc4c3)cc2Cl)CC1 [Example 194, 1-[4-(2-Chloro-4-quinolin-7-yl-phenoxy)-piperidin-1-yl]-propan-1-one]"
5,1 to 99,"CONC(=O)N1CCC(Oc2ccc(-c3cnc4ccccc4c3C)cc2)CC1 [Example 82, 4-[4-(4-Methylquinolin-3-yl)-phenoxy]-piperidine-1-carboxylic acid methoxyamide]"
6,100 to 999,"N#Cc1ccc(-c2ccc(OC3CCN(C(=O)C4CC4)CC3)cc2)cc1 [Example 495, 4′-(1-Cyclopropanecarbonyl-piperidin-4-yloxy)-biphenyl-4-carbonitrile]"
7,1 to 99,"CCC(=O)N1CCC(Sc2ccc(-c3ccc4cccnc4c3)cc2)CC1 [Example 516, 1-(4-((4-(quinolin-7-yl)phenyl)thio)piperidin-1-yl)propan-1-one, HCl]"
8,1 to 99,"Cc1c(-c2ccc(OC3CCN(C(=O)C4(C)CC4)CC3)cc2)ccc2cccnc12 [Example 320, (1-Methylcyclopropyl)-{4-[4-(8-methyl-quinolin-7-yl)-phenoxy]-piperidin-1-yl}-methanone]"
9,1000 to 10000,"CCC(=O)N1CCC(Oc2ccc(-c3cnc4ccccc4c3N3CCN(C)CC3)cc2)CC1 [Example 239, 1-(4-{4-[4-(4-Methylpiperazin-1-yl)-quinolin-3-yl]-phenoxy}-piperidin-1-yl)-propan-1-one]"
10,1 to 99,"O=C([C@H]1CCCO1)N1CCC(Oc2ccc(-c3ccc4cccnc4c3Cl)cc2F)CC1 [Example 223, {4-[4-(8-Chloroquinolin-7-yl)-2-fluorophenoxy]-piperidin-1-yl}-(R)-tetrahydrofuran-2-yl-methanone]"
11,1 to 99,O=C(C1CC1)N1CCC(Oc2ccc(-c3cnc4cccc(F)c4c3)cc2)CC1 [Example 30]
12,100 to 999,"Cc1cc(-c2ccc(OC3CCN(C(=O)C4CC4)CC3)cc2)cn2ccnc12 [Example 288, Cyclopropyl-{4-[4-(8-methylimidazo[1,2-a]pyridin-6-yl)-phenoxy]-piperidin-1-yl}-methanone]"
13,1000 to 10000,"O=C(C1CCC1)N1CCC(Oc2ccc(-c3cccc(-c4ccccn4)c3F)cc2)CC1 [Example 398, Cyclobutyl-[4-(2′-fluoro-3′-pyridin-2-yl-biphenyl-4-yloxy)-piperidin-1-yl]-methanone HCl]"
14,1 to 99,"CN(C)CCNc1c(-c2ccc(OC3CCN(C(=O)[C@H]4CCCO4)CC3)cc2)ccc2cccnc12 [Example 329, (4-{4-[8-(2-Dimethylaminoethylamino)-quinolin-7-yl]-phenoxy}-piperidin-1-yl)-(R)tetrahydrofuran-2-yl-methanone]"
15,100 to 999,"CCC(=O)N1CCC(Oc2ccc(-c3cnc4ncccc4c3)cc2)CC1 [Example 252, 1-[4-(4-[1,8]Naphthyridin-3-yl-phenoxy)-piperidin-1-yl]-propan-1-one, TFA salt]"
16,1 to 99,"O=C(C1CC1)N1CCC(Oc2ccc(-c3ccc4cnccc4c3)cc2)CC1 [Example 466, Cyclopropyl-[4-(4-isoquinolin-6-yl-phenoxy)-piperidin-1-yl]-methanone]"
